Data set [1] is described as follows: Acute toxicity on mice (oral LD50). Conditions: mouse, in vivo, 7 days observation, maximal dose 1000 mg/kg. The procedure: Mice belonging to the NMRI strain (body weight 20-25 g, both male and female) were used, 6 to 10 animals for each dose. The test compound was administered orally in a volume of 20 ml/kg. The applied maximal dose was 1000 mg/kg. […] The mice were kept in a plastic cage at room temperature. The animals got tap water and standard mouse fodder ad libitum. The toxicity data were determined by the aid of the method of Litchfield and Wilcoxon [Litchfield, J. T., Wilcoxon, F. W.: J. Pharmacol. Exp. Ther., 96, 99 (1949)].

For another data set, the system named is shocks tolerated. The data set can be described thus: Anxiolytic effect (Vogel et al.). Particulars: ip, 2 h; rat, intraperitoneal, two hours before testing; read-out: Anxiolytic effect MED. Type of data set: in vivo, rat (male Wistar). The procedure: The anxiolytic effect was tested by using the method of Vogel et al. Male Wistar rats of 160-180 g bodyweight were kept free of food and drinking water for 24 and 48 hours, respectively. Test and carrier substances were administered intraperitoneally two hours before testing. Animals within the experimental chamber were provided with drinking water through an inserted tube. After the animals' each twenty lapping for water the device emitted a 2 mA intensity electric shock through the drinking tube. During 5 minutes the shocks tolerated by the animals in order to quench their thirst were counted. The effect of treatment was expressed as the % increase of the tolerated shocks. The minimum effective dose (MED) was determined for each test compound [Voqel, J. R., Beer, B., Clody, D. E.: Psychopharmacologia (Berl.) 21, 1 (1971)].

The subject of data set [2] is learned conditioned avoidance reflex. Put plainly: Antipsychotic effect: inhibition of conditioned avoidance reflex (shuttle box). Particulars: 1 h, read-out: Conditioned reflex ID50. Type of data set: in vivo, rat (male Wistar). Here is the method: The antipsychotic (neuroleptic) effect was measured by the inhibition of the learned conditioned avoidance reflex. The male Wistar rats used for the study were of 120-150 g bodyweight at the commencement of learning. […] In response to a suitable warning stimulus, in order to avoid the punishing (unconditioned) stimulus, animals within the box passed through the gate from one part over the other. The warning, i.e. conditioned stimulus (CS), a white light (1 Hz) blinking for 15 seconds, was applied at the place of the actual animal existence. The unconditioned stimulus (US), in form of 0.6 mA intensity electric shock, was randomly applied to the paw during the last 5 seconds of the conditioned stimulus. Animal's movement during the CS and US from one part of the box over the other, was defined as avoidance and escape responses, respectively. Both responses ceased the actual stimulus and stopped the trial. The time elapsed until the next trial (intertrial interval, ITI) was 15 seconds. While one experiment was carried out daily, an experiment consisted of 80 trials. Learning efficiency was expressed as percentage of the successful to the total avoidances. […] Dosing was carried out once a week, one hour before the measurement in the shuttle box.

Another data set relates to catalepsy. The data set can be described thus: Catalepsy. Particulars: rat; for Catalepsy MED: scored from 60 minutes after dosing, four hours. Type of data set: in vivo, rat (Wistar). The procedure:
The extrapyramidal syndrome, the most important side effect limiting the application of the neuroleptic drugs in man, can be produced in experimental animals in the form of catalepsy. Our experiments in 150-160 g Wistar rats were performed according to Morpurgo. The catalepsy, appearing 60 minutes after dosing, was scored as follows. Both forelegs of each animal were put for 10 seconds onto a rubber stopper of 3 cm height, then for additional 10 seconds onto a same stopper of 9 cm height. […] The procedure was repeated in each 30 minutes during four hours, obtaining scores proportional to the degree of the catalepsy. Results were used to calculate the minimum effective dose [MED, the lowest dose resulting statistically significant alteration, c.f.: Morpurgo, C.: Arch. Int.

A further data set relates to hexobarbital narcosis. The data set can be described thus: Hexobarbital narcosis potentiating effect on mice. In kind it is in vivo, mouse. Conditions: oral; for ED50: Mus musculus, 1 hour before hexobarbital 40 mg/kg i.v., sleeping time >2.5 times control, read-out: ED50 hexobarbital narcosis potentiation. The procedure:
The hexobarbital narcosis potentiating effect was examined on mice. Groups consisting of 6 animals were used for each dose. The animals were treated orally with the test compound, whereby sleeping was induced 1 hour later by administering a 40 mg/kg i.v. dose of hexobarbital both to the test and control groups. […] ED50 values were calculated from the thus-transformed data [Kaergaard Nielsen C. et al., Arch. Int. Pharmacodyn. 2, 170 (1967)].

The next data set deals with pentetrazole spasm. The data set can be described thus: Anticonvulsive activity: pentetrazole spasm inhibiting test. Particulars: Mus musculus; mice, oral, 1 hour before pentetrazole 125 mg/kg i.p.; read-out: Inhibition of pentetrazole spasm, ED50. In kind it is in vivo, mouse (NMRI). The procedure: The pentetrazole spasm inhibiting test was performed according to the modified method of Benziger and Hans. Groups of mice consisting of 6 animals each, belonging to the NMRI strain (body weight: 20-25 g), were treated orally with the compound to be tested and the vehicle without active agent, respectively. I hour after the treatment a dosage of 125 mg/kg of pentetrazole was administered to each animal, intraperitoneally, and the tonic spasm of the lower limb extensor was recorded [Benziger, R., Hans, D.: Arch. Int. Pharmacodyn., 167, 245 (1967)].
(§1) The ED50 values were determined according to the method of Litchfield and Wilcoxon.

The subject of another data set is nicotine spasm. The data set can be described thus: Anticonvulsive activity: inhibition of nicotine spasm and lethality. Type of data set: in vivo. Particulars: Mus musculus, 1 h; mice, oral, one hour before nicotine 1.4 mg/kg i.v. Here is the method:
The inhibition of nicotine spasm and lethality was examined on mice according to the method of Stone. One hour after the oral treatment a dosage of 1.4 mg/kg of nicotine is injected intravenously, and the spasm developed as well as the lethality within 1 hour were recorded at both the test and control groups. [Stone, C. C., Mecklenburg, K. L., Torchiana, M. L.: Arch. Int. Pharmacodyn., 117, 419 (1958)].
as §1

The test system of the next data set is nervus ischiadicus. Put plainly: Local analgesic effect (Truant d'Amato). Type of data set: in vivo. Conditions: 0.2 ml injected around nervus ischiadicus. The procedure:
The test was carried out according to the method of Truant d'Amato. 0.2 ml of test material was injected around the nervus ischiadicus in the middle of femur with a needle of 1 cm length. The criterion of analgesic effect was the lack of the motoric control of foot muscles. The duration of effect was registered and the 50 percentile effective concentration (EC50) was calculated on the basis of the dose-effect curve. Lidocain was used as reference substance Truant d'Amato, A. P., Wiedling, S.: Acta Chir. Scand., 116, 351 (1958)].

For data set [3], the system named is experimental coronary insufficiency. The data set can be described thus: Antianginal effect (glanduitrine-induced coronary insufficiency, Nieschultz). In kind it is in vivo, rat (male). Conditions: rat, glanduitrine 4 NE/kg i.v., T-wave; for inhibition in vivo at 2 mg/kg: Rat2, iv, read-out: Inhibition in a dose of 2 mg/kg. The procedure: The test was carried out on male rats weighing 180-220 g. The animals were narcotized with the aid of chloralose-urethane. ECG was registered by means of needle electrodes in standard II output. Antianginal effect was tested according to the method of Nieschultz. Experimental coronary insufficiency was induced by administering glanduitrine (4 NE/kg i.v.).

Another data set relates to spontaneous motility. The data set can be described thus: Spontaneous motility inhibiting activity (Dews equipment). Type of data set: in vivo. Particulars: Mus musculus, 0.5 h; oral, beam interruptions within 30 minutes; read-out: Motility inhibiting activity ID50. Here is the method:
The spontaneous motility inhibiting activity was examined according to the method of Borsy et al. Groups consisting of 3 mice each were treated orally with different doses of the compounds to be tested, then the test animals were placed in a Dews equipment. In this equipment the number of interruptions of infrared beam within 30 minutes was counted. […] [Borsy, J., Csanyi, E., Lazar, I.: Arch. Int.. Pharmacodyn. 124, 1 (1960)].

Data set [4] has as its system acetic acid writhing reactions. The data set can be described thus: Analgesic effect (acetic acid writhing, Newbould). In kind it is in vivo, mouse (NMRI). Conditions: Mus musculus, 1 h; mice, 0.75% acetic acid one hour after treatment; read-out: Analgesic effect ID50. Here is the method:
The characteristic "writhing reactions" were counted for a period of 5 minutes, starting from the fifth minute after challenge. […] Each group of animals consisted of at least 10 mice. […]

Where two headings read alike, the source gives them in different places. Some results are limits rather than exact numbers.

Results on 18 compounds are retold here after patent US5439940A, “Benz[e]indene derivatives” (priority 1992, dated 1995).

With `CNC1=Nc2ccc(Cl)cc2C(c2ccccc2)=[N+]([O-])C1` [Chlordiazepoxide, reference compound], the LD50 (as a rule, the dose at which mortality reaches 50%) at 168 h in [1] amounted to 650 mg/kg. For the same compound, the minimal effective dose in the data set with shocks tolerated is 2.5 mg/kg.

`CN(C)CCCN1c2ccccc2Sc2ccc(Cl)cc21` [Chlorpromazine, reference compound]: the median lethal dose (LD50) at 168 h in data set [1] was found to be 315 mg/kg. Also, the ED50 in [2] (Rattus norvegicus) was 13.2 mg/kg. In the data set with catalepsy, the “Therapeutic index (Catalepsy MED / Conditioned Reflex ID50)” value came out at 1.5 and the “Catalepsy MED” value was 20 mg/kg.

As to `CN(C)CCON=C1CCc2c1ccc1ccccc21` [Example 1, 3-[2-(N,N-Dimethylamino)-ethoxyimino]-2,3-dihydro-1H-benz[e]indene], in data set [1], the LD50 at 168 h was 820 mg/kg. Besides, the “effect observed in the given dose, hexobarbital narcosis potentiation” value (shortened to “effect observed in the given dose”) with hexobarbital narcosis (dose 200 mg/kg) worked out at 100%.

For `CCN(CC)CCON=C1CCc2c1ccc1ccccc21` [Example 3, 3-[2-(N,N-Diethylamino)-ethoxyimino]-2,3-dihydro-1H-benz[e]indene], in data set [1], the LD50 at 168 h was 640 mg/kg. In addition, the results for the ED50 in the data set on pentetrazole spasm and in the data set with nicotine spasm were 96 mg/kg and 29 mg/kg, respectively.

As for `c1ccc2c3c(ccc2c1)C(=NOCCN1CCCC1)CC3` [Example 7, 3-[2-(N-Pyrpolidinyl)-ethoxyimino]-2,3-dihydro-1H-benz[e]indene], the LD50 at 168 h in [1] amounted to 700 mg/kg. For the same compound, the “Local analgesic effect EC50” value in the data set with nervus ischiadicus was 0.20%.

Turning to `c1ccc2c3c(ccc2c1)C(=NOCCN1CCCCC1)CC3` [Example 8, 3-[2-(N-Piperidinyl)-ethoxyimlno]-2,3-dihydro-1H-benz[e]indene], the 50% lethal dose (LD50) at 168 h in data set [1] was > 1000 mg/kg. Besides, the “effect observed in the given dose” value with hexobarbital narcosis (dose 100 mg/kg) is listed as 67%. Moreover, the inhibition in vivo at 2 mg/kg in [3] came to 56%.

`c1ccc2c3c(ccc2c1)C(=NOCCCN1CCCCC1)CC3` [Example 9, 3-[3-(N-Piperidinyl)-propoxyimino]-2,3-dihydro-1H-benz[e]indene] gave a median lethal dose (LD50) at 168 h in data set [1] of 320 mg/kg. Besides, the “Local analgesic effect EC50” value with nervus ischiadicus was 0.20%.

Take `c1ccc2c3c(ccc2c1)C(=NOCCN1CCOCC1)CC3` [Example 11, 3-[2-(N-Morpholinoethoxyimino)]-2,3-dihydro-1H-benz[e]indene]: the LD50 at 168 h in [1] was > 1000 mg/kg. Also, in the data set on pentetrazole spasm, the ED50 worked out at 84 mg/kg. Also, in data set [3], the inhibition in vivo at 2 mg/kg is 54%.

As for `Clc1cccc(N2CCN(CCCON=C3CCc4c3ccc3ccccc43)CC2)c1` [Example 12, 3-{3-[4-(3-Chlorophenyl)-1-piperazinyl]-propoxyimino}-2,3-dihydro-1H-benz[e]indene], in data set [1], the LD50 at 168 h is > 1000 mg/kg. Also, in the data set with hexobarbital narcosis (dose 200 mg/kg), the “effect observed in the given dose” value is 83%. Moreover, the results for the ED50 in the data set with spontaneous motility and in the data set with pentetrazole spasm were ~100 mg/kg and 30 mg/kg, respectively. The inhibition in vivo at 2 mg/kg in data set [3] is 56%.

On to `OCCN1CCN(CC(O)CON=C2CCc3c2ccc2ccccc32)CC1` (stereo not shown) [Example 18, 3-{3-[4-(2-Hydroxyethyl)-1-piperazinyl]-2-hydroxypropoxyimino}-2,3-dihydro-1H-benz[e]indene], for which the LD50 at 168 h in data set [1] is > 1000 mg/kg. In addition, the inhibition in vivo at 2 mg/kg in data set [3] amounted to 59%.

`COc1ccccc1N1CCN(CC(O)CON=C2CCc3c2ccc2ccccc32)CC1` (stereo not shown) [Example 19, 3-{3-[4-(2-Methoxyphenyl)-1-piperazinyl]-2-hydroxypropoxyimino}-2,3-dihydro-1H-benz[e]indene]: the 50% lethal dose (LD50) at 168 h in data set [1] is > 1000 mg/kg. Moreover, the ED50 in the data set on hexobarbital narcosis amounted to 67 mg/kg; in the data set on spontaneous motility, 43 mg/kg; in [4], 65 mg/kg.

For the compound `O=C(NC1CCCCC1)ON=C1CCc2c1ccc1ccccc21` [Example 22, 3-(O-Cyclohexylcarbamoyl)-oxime-2,3-dihydro-1H-benz[e]indene], the 50% lethal dose (LD50) at 168 h in data set [1] is > 1000 mg/kg. Besides, the inhibition in vivo at 2 mg/kg in data set [3] is 59%.

`CCN(CC)CC(=O)Nc1c(C)cccc1C` [Lidocain, reference compound]: in the data set on nervus ischiadicus, the “Local analgesic effect EC50” value came out at 0.19%.

In [1], `CCCC(C)(COC(N)=O)COC(N)=O` [Meprobamate, reference compound] displayed a 50% lethal dose (LD50) at 168 h of 1350 mg/kg. In addition, the ED50 in the data set on hexobarbital narcosis was found to be 260 mg/kg; with spontaneous motility, 232 mg/kg. Besides, in the data set on shocks tolerated, the minimal effective dose stood at 25 mg/kg.

On to `CC(Cc1ccccc1)NCCC(c1ccccc1)c1ccccc1` (stereo not shown) [Prenylamine, reference compound], for which the inhibition in vivo at 2 mg/kg in [3] amounted to 41%. This compound displayed an ED50 in data set [3] (iv) of 6.6 mg/kg.

For the compound `CSc1ccc2c(c1)N(CCC1CCCCN1C)c1ccccc1S2` (stereo not shown) [Thioridazine], the ED50 in data set [2] (rat, dosing one hour before measurement) came to 108 mg/kg. In addition, in the data set with catalepsy, the “Therapeutic index (Catalepsy MED / Conditioned Reflex ID50)” value was 0.7 and the “Catalepsy MED” value turned out to be 80 mg/kg.

In turn, `OC(CCN1CCCCC1)(c1ccccc1)C1CCCCC1` (stereo not shown) [Trihexyphenidyl, reference compound] displayed an ED50 with nicotine spasm of 20 mg/kg.

For the compound `CN1C(=O)OC(C)(C)C1=O` [Trimethadione, reference compound], in the data set on pentetrazole spasm, the ED50 came to 400 mg/kg.
